The test addresses T1, KCNJ3/KCNJ5^G151R (Homo sapiens, UniProt P48544, G151R).
T1 construct: GFP; expressed in transfected cells; host or cells: HEK293T (American Type Culture Collection), transient co-transfection
T1 sequence (P48544 1-419 G151R): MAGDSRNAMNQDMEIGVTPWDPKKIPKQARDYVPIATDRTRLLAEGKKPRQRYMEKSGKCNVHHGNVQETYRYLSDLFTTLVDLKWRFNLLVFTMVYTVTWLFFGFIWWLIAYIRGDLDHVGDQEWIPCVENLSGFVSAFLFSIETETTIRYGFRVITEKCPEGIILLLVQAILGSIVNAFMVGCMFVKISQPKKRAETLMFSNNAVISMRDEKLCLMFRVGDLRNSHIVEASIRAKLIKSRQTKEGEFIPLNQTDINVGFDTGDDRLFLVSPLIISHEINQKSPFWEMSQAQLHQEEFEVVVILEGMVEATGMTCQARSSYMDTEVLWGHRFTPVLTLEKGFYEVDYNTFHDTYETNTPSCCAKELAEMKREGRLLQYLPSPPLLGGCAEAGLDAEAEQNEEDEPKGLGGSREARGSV
T1 sequence (P48549 1-501 partner): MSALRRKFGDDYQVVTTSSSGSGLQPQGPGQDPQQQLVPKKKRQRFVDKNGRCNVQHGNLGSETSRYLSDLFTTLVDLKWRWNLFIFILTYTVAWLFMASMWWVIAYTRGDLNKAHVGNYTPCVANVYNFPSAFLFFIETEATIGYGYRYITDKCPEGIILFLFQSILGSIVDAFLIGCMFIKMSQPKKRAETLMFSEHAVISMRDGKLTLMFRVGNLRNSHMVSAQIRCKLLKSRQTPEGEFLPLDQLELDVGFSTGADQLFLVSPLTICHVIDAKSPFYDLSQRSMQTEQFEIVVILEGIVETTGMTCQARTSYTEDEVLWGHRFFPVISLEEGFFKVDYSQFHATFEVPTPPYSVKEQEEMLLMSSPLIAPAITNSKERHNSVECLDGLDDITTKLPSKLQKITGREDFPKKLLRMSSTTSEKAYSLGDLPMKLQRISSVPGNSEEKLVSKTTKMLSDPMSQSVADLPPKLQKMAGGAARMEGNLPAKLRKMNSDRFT
Description: Perforated whole-cell patch clamp, KCNJ3/KCNJ5^G151R heterotetramers in HEK293T cells. The class given is cell-based. The method, then: HEK293T cells (American Type Culture Collection) were used for transient expression of GFP-tagged KCNJ5 or KCNJ3. The cells were grown in Dulbecco's modified Eagle medium (DMEM; Invitrogen) supplemented with 10% FBS (Invitrogen) in 5% CO2 and 95% air at 37° C. Cells were grown to 50-70% confluence for transfection, and the corresponding cDNAs (Choi et al., 2011, Science 331:768-772) were simultaneously applied to the cells using TurboFect transfection reagent according to the manufacturer's protocol (Fermentas). […]
Within 24 hr after transfection, the cells were treated with trypsin-containing medium (TrypLE Express) (Gibco) for 10 minutes to detach the cells. […] Fluorescence signal (an indication of positive transfection) was detected with an intensified video imaging system including a SIT 68 camera (Long Island Industries). […] After forming a high resistance seal (>2 GΩ), the membrane capacitance was monitored until the whole-cell patch configuration was formed. The cell membrane capacitance was measured and compensated. The K/cation currents were measured from −80 mV to 20 mV with 20 mV steps by an Axon 200A patch-clamp amplifier. The currents were low-pass filtered at 1 KHz and digitized by an Axon interface (Digidata 1200) and were analyzed using the pClamp software system 9 (Axon). […]
Background: The patch-clamp technique gives a direct electrical read-out from membranes.

Regarding `CC[C@H]1OC(=O)[C@H](C)[C@@H](O[C@H]2C[C@@](C)(OC)[C@@H](O)[C@H](C)O2)[C@H](C)[C@@H](O[C@@H]2O[C@H](C)C[C@H](N(C)C)[C@H]2O)[C@](C)(O)C[C@@H](C)/C(=N\OCOCCOC)[C@H](C)[C@@H](O)[C@]1(C)O` [Roxithromycin, roxithromycin], the “inhibition of KCNJ3/KCNJ5^G151R currents” value (20 μM, 10 minutes after addition) is recorded as “almost complete inhibition”.

As to “N-demethyl-N-isobutyl-8,9-anhydroerythromycin A 6,9-hemiacetal [PLUX37]”, the “inhibition of mutant KCNJ5 in electrophysiological studies” value (10 μM, heterotetramers of KCNJ3 and mutant or WT KCNJ5 (FIG. 13)) is “specific inhibition of mutant KCNJ5”.
